Reference: article PMC5841658, “Anti-cancer characteristics and ototoxicity of platinum(II) amine complexes with only one leaving ligand” (PLoS ONE, 2018)
“And” between values parts separate entries of the source, which are not always exact repeats. Equal entries are not always repeated.

Experiments:
[1] = test system: zebrafish saccule hair cells; experiment: Hair cell quantification, saccule; format: in vivo, Danio rerio; settings: 25 mg/kg i.p., 48 hours; for effect on hair cell density in four regions of the saccule compared to vehicle: 5, 25, 50, 75% regions
Method: (§1) Zebrafish (Danio rerio) were purchased from a commercial supplier (Segrest Farms, Gibsonton, FL) and maintained in the animal facility of Western Kentucky University according to a protocol approved by the Institutional Animal Care and Use Committee. All zebrafish used in this study were a mix of male and female adult animals at least 6 months of age and were maintained according to standard methods.
(§2) After injection, fish were returned to holding tanks for either 24 or 48 hours and then subjected to hearing tests followed by hair cell quantification analysis.
Hair cell counts were performed from specific regions of the zebrafish saccule and utricle using established procedures. […] Prior to dissection, heads were rinsed three times for 10 minutes each at room temperature in phosphate buffer (pH 7.4, LabChem, Pittsburgh, PA) and the inner ear epithelia (saccule and utricle) were then carefully dissected out and trimmed. […] Tissue samples were then placed on glass slides and nuclei were labelled with Prolong Gold antifade reagent (4’,6-diamidino-2-phenylindole [DAPI], Life Technologies, Carlsbad, CA) and a cover-slip was placed over the samples for microscopy.
Saccule and utricle samples were viewed through the FITC filter of a Zeiss Axioplan2 epifluorescence microscope (Carl Zeiss, Jena, Germany) at 20X magnification and were then photographed using an AxioCam MRm camera. Cell counts were made from four regions of the saccule (5%, 25%, 50%, 75%) along the rostral-caudal length of the organ by placing a 50 μm x 50 μm box at each location and using the microscope cell counter feature. In the utricular samples, cell counts were made from three equidistant 50 μm x 50 μm boxes in both the extrastriolar and striolar regions.
(§3) GraphPad Prism v6 (La Jolla, CA) was used for all statistical analysis. Nuclear fraction platinum uptake as a total percent of combined nuclear and cytosolic uptake was analyzed using a one-way ANOVA (Brown-Forsyth test; p ≤ 0.05). IC50 values were calculated in Prism using the sigmoidal, 4PL, x is log(concentration) analysis feature or were calculated from Prism derived values using the equation y = mx + b. MTT assay standard deviation values were calculated using ED50plus v1.0 online software. AEP threshold data were analyzed by two-way ANOVA (Dunnett’s multiple comparisons test; p ≤ 0.05) and hair cell quantification data by two-way ANOVA (Tukey’s multiple comparisons test; p ≤ 0.05). AEP temporary threshold shifts (TTS) were calculated by subtracting the mean vehicle threshold for each frequency from each treatment threshold. TTS data were averaged across frequencies for each treatment and were analyzed by one-way ANOVA (Tukey’s multiple comparisons test; p ≤ 0.05).

[2] = test system: U-138 MG (HTB-16) glioblastoma cancer cell line; experiment: MTT cellular viability assay, HTB16; format: cell-based; settings: HTB16 (glioma), 72 hours, ± standard deviation
Method: (§4) Cell lines were obtained from American Type Culture Collection (ATCC, Manassas, VA). […] Caco-2 (ATCC: HTB-37) colorectal cancer was grown in EMEM with 20% FBS and 1% penicillin/streptomycin. All cell lines were incubated at 37°C in 5% CO2 with passaging every 4–7 days. Cell culture media and supplements were obtained from ATCC, Atlanta Biologicals (Flowery Branch, GA), Mediatech (Tewksbury, MA), Fisher Scientific (Waltham, MA), Gibco (Gaithersburg, MD) and Sigma-Aldrich.
(§5) The MTT (3-(4,5-dimethylthiazol-2-yl)-2,5-diphenyltetrazolium bromide) cellular viability assay was performed in all three cancer cell lines and the non-cancer cell line. Following a protocol adapted from, cells were seeded at 5,000 cells per well in 96-well plates and incubated at 37°C in 5% CO2 in F-12K Medium or EMEM with FBS supplementation and 1% penicillin/streptomycin for 24 hours. Then, wells were treated in replicates of six according to a concentration series (500, 50, 5, 0.5, 0.05 μM) of specific platinum complexes for 72 hours. A negative control (media only), positive control (Triton X-100) and series of blanks were simultaneously performed. The MTT assay was run for 2 hours, then well contents were rapidly evacuated out and all wells were treated with MTT solubilization solution [10% Triton X-100 in acidic (0.1N HCl) isopropanol] for 15 minutes before the plates were read using a BioTek Synergy HT microplate plate reader (570 nm and 690 nm absorbance wavelengths). Reagents, cell culture media and supplements were obtained from ATCC, Atlanta Biologicals, Mediatech, Fisher Scientific, Gibco and Sigma-Aldrich.
as §3

[3] = test system: A549 lung cancer cell line; experiment: MTT cellular viability assay, A549; format: cell-based; settings: 72 hours, ± standard deviation
Method: as §4, §5, §3

[4] = test system: IMR-90 lung fibroblast control cell line; experiment: MTT cellular viability assay, IMR90; format: cell-based; settings: IMR90 (fibroblast, non-cancer), 72 hours, ± standard deviation
Method: as §4, §5, §3

[5] = test system: zebrafish hearing thresholds; experiment: Auditory evoked potential (AEP) testing in zebrafish inner ear model; format: in vivo, Danio rerio; settings: 25 mg/kg i.p.; for AEP hearing threshold, significance of pairwise comparison against vehicle / AEP hearing threshold, significance of pairwise comparison against cisplatin: 48 h; for mean (± S.E.) temporary threshold shift (TTS), averaged across frequencies: 48 hours, vehicle threshold subtracted
Method: as §1, §2
Auditory evoked potential (AEP) testing was performed on individual fish according to standard protocols. […] After harness placement was complete, three 27 gauge stainless steel electrodes (Rochester Electro-Medical, Inc., Lutz, FL) were inserted approximately 2 mm subdermally to record AEPs. A reference electrode was inserted into the medial dorsal surface of the head, a recording electrode directly over the brainstem and a ground electrode in the tail musculature. Sound stimuli (tone pips) were presented to each fish at 8 frequencies (100, 250, 400, 600, 800, 1000, 1500 and 3000 Hz) and AEP waveforms were collected using a TDT System III physiology apparatus (Tucker-Davis Technologies Inc., Alachua, FL) running SigGen and BioSig software. Auditory stimuli were passed through a P1000 power amplifier (Hafler, Port Coquitlam, BC) and presented with a University Sound UW-30 underwater speaker (Electro-Voice, Fairport, NY). Sound pressure levels were confirmed using a Type 10CT hydrophone (G.R.A.S., Holte, Denmark) placed adjacent to the mesh harness. Auditory thresholds were determined in 5 dB increments by visual inspection of AEP waveforms.
as §3

5'-GMP = experiment: Kinetic 5'-GMP assay (1H NMR, rate of reaction of platinum complex with 5'-GMP); format: biochemical; settings: D2O, pH 7, 25°C; for Rate constant for the reaction of 5'-GMP with the platinum(II) complex: excess platinum, fitted first order in each reactant
Method: The reaction of each platinum compound with 5'-GMP (Acros) was monitored using ^1H NMR spectroscopy to observe the disappearance of the H8 signal of the unreacted 5'-GMP at ≈8 ppm and the appearance of a product signal ≈0.5–1.0 ppm downfield of the unreacted 5'-GMP. The reaction was conducted with excess platinum compound present in each case. A 10 mM solution of 5'-GMP and a 10–20 mM solution of the platinum(II) compound were prepared separately in D2O. The pH (uncorrected for the effects of deuterium) of each solution was adjusted to 7, and the samples were equilibrated to 25°C in a water bath. Aliquots of the two solutions were combined and placed in an NMR tube; typically, the final concentrations of platinum was 5–18 mM and the concentration of 5'-GMP was 1 mM (except for the [Pt(dien)Cl]^+ reaction, where it was 0.5 mM). Samples were maintained at 25°C throughout the NMR experiment. The H8 resonances were integrated and the data was fitted to an equation that was first order in each reactant using DynaFit to determine rate constants. At least two runs were conducted for each platinum compound using fresh samples.

[6] = test system: Caco-2 colorectal cancer cell line; experiment: MTT cellular viability assay, Caco2; format: cell-based; settings: 72 hours, ± standard deviation
Method: as §4, §5, §3

| SMILES | effect on hair cell density in four regions of the saccule compared to vehicle [1] | IC50 [2] [µM] | IC50 [3] [µM] | IC50 [4] [µM] | AEP hearing threshold, significance of pairwise comparison against vehicle ([5]; 100 Hz) | AEP hearing threshold, significance of pairwise comparison against vehicle ([5]; 250 Hz) | AEP hearing threshold, significance of pairwise comparison against vehicle ([5]; 400 Hz) | AEP hearing threshold, significance of pairwise comparison against vehicle ([5]; 600 Hz) | AEP hearing threshold, significance of pairwise comparison against vehicle ([5]; 800 Hz) | AEP hearing threshold, significance of pairwise comparison against vehicle ([5]; 1000 Hz) | AEP hearing threshold, significance of pairwise comparison against vehicle ([5]; 1500 Hz) | AEP hearing threshold, significance of pairwise comparison against vehicle ([5]; 3000 Hz) | Relative rate (rate constant divided by the rate constant for [Pt(dien)Cl]^+) (5'-GMP) | Rate constant for the reaction of 5'-GMP with the platinum(II) complex (5'-GMP) | IC50 [6] [µM] | mean (± S.E.) temporary threshold shift (TTS), averaged across frequencies [5] | AEP hearing threshold, significance of pairwise comparison against cisplatin ([5]; 100 Hz) | AEP hearing threshold, significance of pairwise comparison against cisplatin ([5]; 250 Hz) | AEP hearing threshold, significance of pairwise comparison against cisplatin ([5]; 400 Hz) | AEP hearing threshold, significance of pairwise comparison against cisplatin ([5]; 600 Hz) | also measured |
| --- | --- | --- | --- | --- | --- | --- | --- | --- | --- | --- | --- | --- | --- | --- | --- | --- | --- | --- | --- | --- | --- |
| N.N.[Cl][Pt][Cl] [Cisplatin, cisplatin] | hair cell density reduction in the 5, 25 and 50% regions | 3.11 ± 0.06 | 9.79 ± 0.63 | 0.53 ± 0.94 | ns (ns, p > 0.05) | ns (ns, p > 0.05) | **** (**** p ≤ 0.0001) | *** (*** p ≤ 0.001) | *** (*** p ≤ 0.001) | **** (**** p ≤ 0.0001) | **** (**** p ≤ 0.0001) | ns (ns, p > 0.05) | – | – | – | – | – | – | – | – | saccule hair cell density, % of control ([1]; 5% location along rostral-caudal axis): 69.5 % of control; saccule hair cell density, % of control ([1]; 25% location along rostral-caudal axis): 41.4 % of control; saccule hair cell density, % of control ([1]; 50% location along rostral-caudal axis): 47.7 % of control |
| [NH3+][Pt-2]([NH3+])([Cl])[n+]1ccccc1 (stereo not shown) [Pyriplatin, pyriplatin] | no hair cell reduction | 66.3 ± 0.74 | 89.28 ± 0.46 | 16.1 ± 1.13 | * (* p ≤ 0.05) | ns (ns, p > 0.05) | ns (ns, p > 0.05) | ns (ns, p > 0.05) | ns (ns, p > 0.05) | ns (ns, p > 0.05) | ns (ns, p > 0.05) | ns (ns, p > 0.05) | 0.073 | 2.9 (+/- 0.7) x 10^−2 M^-1s^-1 | 20.9 ± 0.69 | 6 dB and 6.2 ± 2.1 dB | ns (ns, p > 0.05) | ns (ns, p > 0.05) | ns (ns, p > 0.05) | ns (ns, p > 0.05) | Rate constant for the reaction of 5'-GMP with the platinum(II) complex (5'-GMP; listed as pyriplatin): 2.9 ± 0.7 x 10^−2 M^-1s^-1; AEP hearing threshold, significance of pairwise comparison against cisplatin ([5]; 800 Hz): ns (ns, p > 0.05); AEP hearing threshold, significance of pairwise comparison against cisplatin ([5]; 1000 Hz): ns (ns, p > 0.05); AEP hearing threshold, significance of pairwise comparison against cisplatin ([5]; 1500 Hz): * (* p ≤ 0.05); AEP hearing threshold, significance of pairwise comparison against cisplatin ([5]; 3000 Hz): ns (ns, p > 0.05) |
| CC[N+]1(CC)CC[NH+]2CC[NH2+][Pt-2]21[Cl] (stereo not shown) [[Pt(Et2dien)Cl]^+, Pt(N,N-diethyldiethylenetriamine)Cl] | no significant reduction in hair cell bundles | – | – | – | *** (*** p ≤ 0.001) | ns (ns, p > 0.05) | **** (**** p ≤ 0.0001) | **** (**** p ≤ 0.0001) | **** (**** p ≤ 0.0001) | **** (**** p ≤ 0.0001) | ns (ns, p > 0.05) | ** (** p ≤ 0.01) | 0.00012 | 4.64 ± 0.08 x 10^−5 M^-1s^-1 and 4.64 (+/- 0.08) x 10^−5 M^-1s^-1 | – | 11.1 ± 2.5 dB | ns (ns, p > 0.05) | ns (ns, p > 0.05) | ns (ns, p > 0.05) | ns (ns, p > 0.05) | AEP hearing threshold, significance of pairwise comparison against cisplatin ([5]; 800 Hz): * (* p ≤ 0.05); AEP hearing threshold, significance of pairwise comparison against cisplatin ([5]; 1000 Hz): ns (ns, p > 0.05); AEP hearing threshold, significance of pairwise comparison against cisplatin ([5]; 1500 Hz): ns (ns, p > 0.05); AEP hearing threshold, significance of pairwise comparison against cisplatin ([5]; 3000 Hz): ns (ns, p > 0.05) |
| CC[N+]1(CC)CC[NH+]2CC[NH][Pt-2]21[Cl] (stereo not shown) [[Pt(Et2dien)Cl]^+, Pt(N,N-diethyldiethylenetriamine)Cl] | – | 48 ± 11.8 | 67.3 ± 0.36 | 7.13 ± 0.98 | – | – | – | – | – | – | – | – | – | – | 72.5 ± 3.37 | – | – | – | – | – | – |
